Measured values published in ChEMBL document CHEMBL4364241, “Developments in the anticancer activity of structurally modified curcumin: An up-to-date review” (Eur J Med Chem, 2019).

Tests used:
[1] = biological target: Tyrosine-protein kinase ABL1 (Homo sapiens, UniProt P00519, Y253F); assay: Inhibition of ABL Y253F mutant (unknown origin)
[2] = biological target: Tyrosine-protein kinase ABL1 (Homo sapiens, UniProt P00519, Q252H); assay: Inhibition of ABL Q252H mutant (unknown origin)
[3] = biological target: Tyrosine-protein kinase ABL1 (Homo sapiens, UniProt P00519, T315I); assay: Inhibition of ABL T315I mutant (unknown origin)
[4] = biological target: Tyrosine-protein kinase ABL1 (Homo sapiens, UniProt P00519); assay: Inhibition of Wild type ABL (unknown origin)
[5] = tested on: HepG2; assay: Cytotoxicity against human HepG2 Cells; assay type: functional, cell-based
[6] = tested on: L02; assay: Cytotoxicity against human LO2 Cells; assay type: functional, cell-based
[7] = tested on: THP-1; assay: Cytotoxicity against human THP1 Cells; assay type: functional, cell-based
[8] = tested on: K562; assay: Antiproliferative activity against human K562 Cells; assay type: functional, cell-based
[9] = tested on: HeLa; assay: Cytotoxicity against human HeLa Cells; assay type: functional, cell-based
[10] = Antiproliferative activity against human K562/G01 cells; assay type: functional, cell-based

Row | SMILES | IC50 [1] [µM] | IC50 [2] [µM] | IC50 [3] [µM] | IC50 [4] [µM] | IC50 [5] [µM] | IC50 [6] [µM] | IC50 [7] [µM] | IC50 [8] [µM] | IC50 [9] [µM] | IC50 [10] [µM]
1 | COc1cc(C=C(C(=O)/C=C/c2ccc(O)c(OC)c2)C(=O)/C=C/c2ccc(O)c(OC)c2)ccc1O | 0.0798 | 0.185 | 0.0673 | 0.0833 |  |  |  |  |  | 
2 | C/C(=C/C(=O)c1ccccc1)Nc1cccc(/C=C2\CN(C)C/C(=C\c3cccc(N/C(C)=C/C(=O)c4ccccc4)c3)C2=O)c1 |  |  |  |  | 5.52 | 13.1 | 1.17 | 4.8 | > 10 | 
3 | COc1cc(/C=C/C(=O)C(=Cc2ccncc2)C(=O)/C=C/c2ccc(O)c(OC)c2)ccc1O |  |  |  |  |  |  |  | 1.1 |  | 0.6
